Laboratory results reported in patent US4818770A, “Prevention of a plant disease by specific inhibition of fungal polyamine biosynthesis” (priority 1986, dated 1989).
Where “and” joins values, the source holds several entries; their conditions need not be identical. Identical values can stand only once. Like-named read-outs stand apart in the source and are kept apart here.

Experiments:
Uromyces phaseoli [1] = test: Translocation of protective effect in partially treated unifoliolate bean leaves; format: in vivo; details: for Lesions per cm^2, treated side / Lesions per cm^2, untreated side / Lesions per half leaf, treated side / Lesions per half leaf, untreated side: 1.0 mM on one longitudinal half leaf
[2] = tested on: P. graminis f. sp. tritici; format: in vivo, Puccinia graminis f. sp. tritici
[3] = tested on: P. recondita f. sp. tritici; format: in vivo, Puccinia recondita f. sp. tritici
U. phaseoli [4] = test: Kinetics of bean rust inhibition by delayed postinoculation DFMO; format: in vivo, Uromyces phaseoli
U. phaseoli [5] = test: Bean rust severity after DFMO and polyamines alone or combined; format: in vivo, Uromyces phaseoli
U. phaseoli uredospores = test: Uredospore germination on the surface of the unifoliolate bean leaf; format: in vivo, Uromyces phaseoli; details: sprayed 1 day before inoculation
Podosphaera leucotricha = test: Infection of apple by powdery mildew; format: in vivo; details: 5 mM
[6] = tested on: Collectotrichum lagenarium; test: Radial growth in vitro of cucumber anthracnose fungus; format: cell-based, Colletotrichum lagenarium
Experimental: See Table 15 for the effect of DFMO on radial growth in vitro on cucumber anthracnose fungus (Colletcotrichum lagenarium). The cucumber anthracnose fungus growing in Czapek's agar in Petri plates is not affected by DFMO up to 5 mM.

Uromyces phaseoli [7] = test: Bean rust lesions on reinoculated trifoliolate leaves; details: for Lesions per cm^2 / Lesions per leaflet: reinoculated trifoliolate leaves
Source text: Trifoliolate leaves were reinoculated with pathogen after 1 week, before
or after exposure to DFMO, to detect transfer of a protective effect to
other parts of the plant.

[8] = 1.0 mM DFMO sprayed 1 d after spore inoculation
[9] = 1.0 mM DFMO sprayed 2 d after spore inoculation
[10] = 1.0 mM DFMO sprayed 3 d after spore inoculation
[11] = 1.0 mM DFMO sprayed 4 d after spore inoculation
[12] = 1.0 mM DFMO sprayed 5 d after spore inoculation
[13] = DFMO 0.05 mM alone, postinoculation
[14] = postinoculation exposure, DFMO 0.05 mM
[15] = postinoculation exposure, DFMO 0.1 mM
[16] = postinoculation exposure, DFMO 0.5 mM
[17] = postinoculation exposure, DFMO 1.0 mM
[18] = postinoculation exposure, DFMO 5.0 mM
[19] = preinoculation exposure, DFMO 0.05 mM
[20] = preinoculation exposure, DFMO 0.1 mM
[21] = preinoculation exposure, DFMO 0.5 mM
[22] = preinoculation exposure, DFMO 1.0 mM
[23] = preinoculation exposure, DFMO 5.0 mM

NCCCC(N)(C(=O)O)C(F)F (racemic) [DFMO, DL-alpha-difluorimethylornithine]
protection of the untreated half of the leaf (Uromyces phaseoli [1]; petiolar or apical half treated with 1 mM DFMO): the other half was also protected against infection
Lesions per cm^2, treated side (Uromyces phaseoli [1]; postinoculation exposure): 0 per cm^2
Lesions per cm^2, untreated side (Uromyces phaseoli [1]; postinoculation exposure): 0 per cm^2
Lesions per half leaf, treated side (Uromyces phaseoli [1]; postinoculation exposure): 0 per half leaf
Lesions per half leaf, untreated side (Uromyces phaseoli [1]; postinoculation exposure): 0 per half leaf
Lesions per cm^2, treated side (Uromyces phaseoli [1]; preinoculation exposure): 0 per cm^2
Lesions per cm^2, untreated side (Uromyces phaseoli [1]; preinoculation exposure): 22 ± 4 per cm^2
Lesions per half leaf, treated side (Uromyces phaseoli [1]; preinoculation exposure): 0 per half leaf
Lesions per half leaf, untreated side (Uromyces phaseoli [1]; preinoculation exposure): 617 ± 112 per half leaf
% control ([2]; post-inoculation, 0.01 mM): 36%
Uredia/plant ([2]; post-inoculation, 0.01 mM): 134 Uredia/plant
% control ([2]; post-inoculation, 0.025 mM): 44%
Uredia/plant ([2]; post-inoculation, 0.025 mM): 117 Uredia/plant
% control ([2]; post-inoculation, 0.065 mM): 55%
Uredia/plant ([2]; post-inoculation, 0.065 mM): 94 Uredia/plant
% control ([2]; post-inoculation, 0.10 mM): 76%
Uredia/plant ([2]; post-inoculation, 0.10 mM): 51 Uredia/plant
% control ([2]; post-inoculation, 0.13 mM): 77%
Uredia/plant ([2]; post-inoculation, 0.13 mM): 49 Uredia/plant
% control ([2]; post-inoculation, 0.16 mM): 81%
Uredia/plant ([2]; post-inoculation, 0.16 mM): 40 Uredia/plant
% control ([2]; post-inoculation, 0.20 mM): 82%
Uredia/plant ([2]; post-inoculation, 0.20 mM): 37 Uredia/plant
% control ([2]; post-inoculation, 1.00 mM): 92%
Uredia/plant ([2]; post-inoculation, 1.00 mM): 17 Uredia/plant
ED50, wheat stem rust ([2]; pre-inoculation treatment): 560 µM
% control ([2]; pre-inoculation, 0.01 mM): 8%
Uredia/plant ([2]; pre-inoculation, 0.01 mM): 194 Uredia/plant
% control ([2]; pre-inoculation, 0.025 mM): 17%
Uredia/plant ([2]; pre-inoculation, 0.025 mM): 175 Uredia/plant
% control ([2]; pre-inoculation, 0.065 mM): 13%
Uredia/plant ([2]; pre-inoculation, 0.065 mM): 182 Uredia/plant
% control ([2]; pre-inoculation, 0.10 mM): 13%
Uredia/plant ([2]; pre-inoculation, 0.10 mM): 183 Uredia/plant
% control ([2]; pre-inoculation, 0.13 mM): 19%
Uredia/plant ([2]; pre-inoculation, 0.13 mM): 170 Uredia/plant
% control ([2]; pre-inoculation, 0.16 mM): 32%
Uredia/plant ([2]; pre-inoculation, 0.16 mM): 143 Uredia/plant
% control ([2]; pre-inoculation, 0.20 mM): 32%
Uredia/plant ([2]; pre-inoculation, 0.20 mM): 143 Uredia/plant
% control ([2]; pre-inoculation, 1.00 mM): 57%
Uredia/plant ([2]; pre-inoculation, 1.00 mM): 91 Uredia/plant
% control ([3]; 0.01 mM): 45% and 60%
Uredia/plant ([3]; 0.01 mM): 44 Uredia/plant and 32 Uredia/plant
% control ([3]; 0.025 mM): 51% and 66%
Uredia/plant ([3]; 0.025 mM): 39 Uredia/plant and 27 Uredia/plant
% control ([3]; 0.13 mM): 55% and 90%
% control ([3]; 0.16 mM): 52% and 92%
% control ([3]; 0.20 mM): 65% and 95%
% control ([3]; 1.00 mM): 72% and 100%
% control ([3]; in vivo): 52% and 82%
Lesions per cm^2 (U. phaseoli [4]; [8]): 0 per cm^2
Lesions per leaf (U. phaseoli [4]; [8]): 0 per leaf
Lesions per cm^2 (U. phaseoli [4]; [9]): 0 per cm^2
Lesions per leaf (U. phaseoli [4]; [9]): 0 per leaf
Lesions per cm^2 (U. phaseoli [4]; [10]): 0 per cm^2
Lesions per leaf (U. phaseoli [4]; [10]): 0 per leaf
Lesions per cm^2 (U. phaseoli [4]; [11]): 41 ± 5 per cm^2
Lesions per leaf (U. phaseoli [4]; [11]): 2330 ± 211 per leaf
Lesions per cm^2 (U. phaseoli [4]; [12]): 53 ± 4 per cm^2
Lesions per leaf (U. phaseoli [4]; [12]): 3278 ± 326 per leaf
reduction of number of lesions (U. phaseoli [5]; 0.05 mM DFMO alone): 70%
Lesions per cm^2 (U. phaseoli [5]; [13]): 22 ± 4 per cm^2
Lesions per leaf (U. phaseoli [5]; [13]): 1223 ± 268 per leaf
Lesions per leaf, percent of control (U. phaseoli [5]; [13]): 30% of control
inhibition at 50 µM (U. phaseoli [5]; Uromyces phaseoli, 0.05 mM DFMO, read-out: inhibition of uredial development): ~50%
spore germination on leaf surface (U. phaseoli uredospores; lower concentrations of DFMO): partially inhibited
spore germination on leaf surface (U. phaseoli uredospores; more than 0.5 mM DFMO): completely inhibited
Percent control (Podosphaera leucotricha): 48.6%
Radial growth (cm) ([6]; 0.10 mM): 4.5 cm
Radial growth (cm) ([6]; 0.25 mM): 4.5 cm
Radial growth (cm) ([6]; 0.50 mM): 4.5 cm
Radial growth (cm) ([6]; 0.65 mM): 4.4 cm
Radial growth (cm) ([6]; 1.00 mM): 4.0 cm
Radial growth (cm) ([6]; 5.00 mM): 3.8 cm
inhibition of growth at 650 µM ([6]; Colletotrichum orbiculare, 0.65 mM, read-out: Percent control): 2%
inhibition of growth at 1000 µM ([6]; Colletotrichum orbiculare, 1.00 mM, read-out: Percent control): 7%
inhibition of growth at 5000 µM ([6]; Colletotrichum orbiculare, 5.00 mM, read-out: Percent control): 16%
effect on fungus growing in Czapek's agar ([6]; up to 5 mM): not affected
protection of newly emerged trifoliolate leaves (Uromyces phaseoli [7]; 5.0 mM DFMO, reinoculated after 1 week): complete protection
Lesions per cm^2 (Uromyces phaseoli [7]; [14]): 59 ± 1 per cm^2
Lesions per leaflet (Uromyces phaseoli [7]; [14]): 1246 ± 73 per leaflet
Lesions per cm^2 (Uromyces phaseoli [7]; [15]): 58 ± 4 per cm^2
Lesions per leaflet (Uromyces phaseoli [7]; [15]): 1289 ± 131 per leaflet
Lesions per cm^2 (Uromyces phaseoli [7]; [16]): 41 ± 4 per cm^2
Lesions per leaflet (Uromyces phaseoli [7]; [16]): 982 ± 84 per leaflet
Lesions per cm^2 (Uromyces phaseoli [7]; [17]): 22 ± 2 per cm^2
Lesions per leaflet (Uromyces phaseoli [7]; [17]): 422 ± 13 per leaflet
Lesions per cm^2 (Uromyces phaseoli [7]; [18]): 0 per cm^2
Lesions per leaflet (Uromyces phaseoli [7]; [18]): 0 per leaflet
Lesions per cm^2 (Uromyces phaseoli [7]; [19]): 64 ± 5 per cm^2
Lesions per leaflet (Uromyces phaseoli [7]; [19]): 1458 ± 92 per leaflet
Lesions per cm^2 (Uromyces phaseoli [7]; [20]): 55 ± 3 per cm^2
Lesions per leaflet (Uromyces phaseoli [7]; [20]): 1274 ± 120 per leaflet
Lesions per cm^2 (Uromyces phaseoli [7]; [21]): 39 ± 7 per cm^2
Lesions per leaflet (Uromyces phaseoli [7]; [21]): 1172 ± 158 per leaflet
Lesions per cm^2 (Uromyces phaseoli [7]; [22]): 16 ± 2 per cm^2
Lesions per leaflet (Uromyces phaseoli [7]; [22]): 320 ± 22 per leaflet
Lesions per cm^2 (Uromyces phaseoli [7]; [23]): 0 per cm^2
Lesions per leaflet (Uromyces phaseoli [7]; [23]): 0 per leaflet
